From patent US20100324829A1, “METHOD OF SELECTING HLA-DP4 LIGANDS AND THE APPLICATIONS THEREOF” (priority 2001, published 2010) come the findings set out here.

Where a chain is given by its changes, count along the chain named.

Assay [1] concerns the target T1, HLA-DP4 molecule DPA1*0103/DPB1*0402 (DP402) (Homo sapiens, UniProt P04440+P20036).
T1 construct: purified from various human B lymphocyte lines transformed with the Epstein Barr virus (EBV), which are homozygotes for DP; endogenous in cells
T1 sequence (P20036 29-260): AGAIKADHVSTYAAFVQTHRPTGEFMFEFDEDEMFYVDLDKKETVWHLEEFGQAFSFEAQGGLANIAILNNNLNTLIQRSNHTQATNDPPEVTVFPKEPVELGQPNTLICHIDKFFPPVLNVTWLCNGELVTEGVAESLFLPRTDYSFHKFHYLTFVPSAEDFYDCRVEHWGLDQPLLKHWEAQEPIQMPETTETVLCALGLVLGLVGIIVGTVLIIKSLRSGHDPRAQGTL
T1 sequence (P04440 30-258 A65V/A84D/A85E): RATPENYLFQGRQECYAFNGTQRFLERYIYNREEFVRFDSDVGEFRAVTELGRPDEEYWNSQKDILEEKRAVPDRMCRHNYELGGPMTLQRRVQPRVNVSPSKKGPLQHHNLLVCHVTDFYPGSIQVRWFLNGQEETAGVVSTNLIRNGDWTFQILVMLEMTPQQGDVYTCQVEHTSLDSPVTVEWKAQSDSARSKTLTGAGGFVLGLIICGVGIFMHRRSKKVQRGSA
Nature of the assay: biochemical. The assay is classed as binding.

In assay [2] the target is T2, HLA-DP4 molecule DPA1*0103/DPB1*0401 (DP401) (Homo sapiens, UniProt P04440+P20036).
T2 construct: purified from various human B lymphocyte lines transformed with the Epstein Barr virus (EBV), which are homozygotes for DP; endogenous in cells
T2 sequence (P20036 29-260): T1 sequence (P20036 29-260)
T2 sequence (P04440 30-258): T1 sequence (P04440 30-258 A65V/A84D/A85E) with V36A, D55A, E56A
Put plainly: biochemical. It is filed as binding.

KYFAATQFEALAA [UNK P12A]: in assay [1], the “Loss of binding to DP*0402 (ratio of the IC50 values for the mutant peptide and for the UNK1 peptide)” value is on record as 0.9. The “Loss of binding to DP*0401 (ratio of the IC50 values for the mutant peptide and for the UNK1 peptide)” value in assay [2] is 1.2. For the molecule KYFAATQTEPLAA [UNK F10T], the “Loss of binding to DP*0402 (ratio of the IC50 values for the mutant peptide and for the UNK1 peptide)” value in assay [1] worked out at 476. In addition, the “Loss of binding to DP*0401 (ratio of the IC50 values for the mutant peptide and for the UNK1 peptide)” value in assay [2] came out at 1171. The matching figures for KYFAATQFEPEAA [UNK L13E]: 8 and 11. The matching figures for KYFAALQFEPLAA [UNK T8L]: 2.6 and 1.9.

Consider KYFAASQFEPLAA [UNK T8S], for which the “Loss of binding to DP*0402 (ratio of the IC50 values for the mutant peptide and for the UNK1 peptide)” value in assay [1] is recorded as 3.4. Besides, the “Loss of binding to DP*0401 (ratio of the IC50 values for the mutant peptide and for the UNK1 peptide)” value in assay [2] is recorded as 2.7.

For KYKAATQFEPLAA [UNK F5K], the “Loss of binding to DP*0402 (ratio of the IC50 values for the mutant peptide and for the UNK1 peptide)” value in assay [1] is reported as 297. The “Loss of binding to DP*0401 (ratio of the IC50 values for the mutant peptide and for the UNK1 peptide)” value in assay [2] is listed as 569.

In the case of KYFAATQFEPYAA [UNK L13Y], the “Loss of binding to DP*0402 (ratio of the IC50 values for the mutant peptide and for the UNK1 peptide)” value in assay [1] is 15. The “Loss of binding to DP*0401 (ratio of the IC50 values for the mutant peptide and for the UNK1 peptide)” value in assay [2] was 2. With KYFAAYQFEPLAA [UNK T8Y], the “Loss of binding to DP*0402 (ratio of the IC50 values for the mutant peptide and for the UNK1 peptide)” value in assay [1] was 2.4. Further, in assay [2], the “Loss of binding to DP*0401 (ratio of the IC50 values for the mutant peptide and for the UNK1 peptide)” value was 4.1. For the molecule KYFKATQFEPLAA [UNK A6K], the “Loss of binding to DP*0402 (ratio of the IC50 values for the mutant peptide and for the UNK1 peptide)” value in assay [1] is 1. Further, the “Loss of binding to DP*0401 (ratio of the IC50 values for the mutant peptide and for the UNK1 peptide)” value in assay [2] amounted to 1.6.

Take KYFAATKFEPLAA [UNK Q9K]: in assay [1], the “Loss of binding to DP*0402 (ratio of the IC50 values for the mutant peptide and for the UNK1 peptide)” value worked out at 0.9. In assay [2], the “Loss of binding to DP*0401 (ratio of the IC50 values for the mutant peptide and for the UNK1 peptide)” value is given as 1.6. The matching figures for KYFAAKQFEPLAA [UNK T8K]: 3.6 and 31. Taken in the same sequence, the figures for KYFAATQFAPLAA [UNK E11A] were 0.5 and 0.5. Regarding KYFAAAQFEPLAA [UNK T8A], the “Loss of binding to DP*0402 (ratio of the IC50 values for the mutant peptide and for the UNK1 peptide)” value in assay [1] is recorded as 0.8. Also, the “Loss of binding to DP*0401 (ratio of the IC50 values for the mutant peptide and for the UNK1 peptide)” value in assay [2] is recorded as 0.8.

With KYLAATQFEPLAA [UNK F5L], the “Loss of binding to DP*0402 (ratio of the IC50 values for the mutant peptide and for the UNK1 peptide)” value in assay [1] came out at 6. In addition, the “Loss of binding to DP*0401 (ratio of the IC50 values for the mutant peptide and for the UNK1 peptide)” value in assay [2] is on record as 3.6. Taken in the same sequence, the figures for KYFAATQAEPLAA [UNK F10A] were 62 and 336.

Turning to KYFAATQKEPLAA [UNK F10K], the “Loss of binding to DP*0402 (ratio of the IC50 values for the mutant peptide and for the UNK1 peptide)” value in assay [1] came to 350. The “Loss of binding to DP*0401 (ratio of the IC50 values for the mutant peptide and for the UNK1 peptide)” value in assay [2] turned out to be 420.

For KKFAATQFEPLAA [UNK Y4K], the “Loss of binding to DP*0402 (ratio of the IC50 values for the mutant peptide and for the UNK1 peptide)” value in assay [1] is recorded as 1. Further, the “Loss of binding to DP*0401 (ratio of the IC50 values for the mutant peptide and for the UNK1 peptide)” value in assay [2] is recorded as 1.2. Consider KYFAATQFEPLKA [UNK A13K], for which the “Loss of binding to DP*0402 (ratio of the IC50 values for the mutant peptide and for the UNK1 peptide)” value in assay [1] was 1.4. Also, the “Loss of binding to DP*0401 (ratio of the IC50 values for the mutant peptide and for the UNK1 peptide)” value in assay [2] was found to be 1.7. Taken in the same sequence, the figures for KYFAATQFEPNAA [UNK L13N] were 10 and 17. The matching figures for KYFAADQFEPLAA [UNK T8D]: 2.3 and 2. Taken in the same sequence, the figures for KYFAATQFEKLAA [UNK P12K] were 1.4 and 1.8. Consider KYFAATQFKPLAA [UNK E11K], for which, in assay [1], the “Loss of binding to DP*0402 (ratio of the IC50 values for the mutant peptide and for the UNK1 peptide)” value amounted to 0.7. Further, in assay [2], the “Loss of binding to DP*0401 (ratio of the IC50 values for the mutant peptide and for the UNK1 peptide)” value came to 1.3. Taken in the same sequence, the figures for KYFAATQNEPLAA [UNK F10N] were 1809 and 2460. Taken in the same sequence, the figures for KYFAARQFEPLAA [UNK T8R] were 6.7 and 17. Take KYNAATQFEPLAA [UNK F5N]: the “Loss of binding to DP*0402 (ratio of the IC50 values for the mutant peptide and for the UNK1 peptide)” value in assay [1] is on record as 76. In addition, in assay [2], the “Loss of binding to DP*0401 (ratio of the IC50 values for the mutant peptide and for the UNK1 peptide)” value is on record as 398.

In the case of KYFAATAFEPLAA [UNK Q9A], the “Loss of binding to DP*0402 (ratio of the IC50 values for the mutant peptide and for the UNK1 peptide)” value in assay [1] came to 0.6. In assay [2], the “Loss of binding to DP*0401 (ratio of the IC50 values for the mutant peptide and for the UNK1 peptide)” value came to 0.8. Taken in the same sequence, the figures for AYFAATQFEPLAA [UNK K3A] were 1 and 0.9. Taken in the same sequence, the figures for KYFAATQFEPDAA [UNK L13D] were 9 and 9.4. Taken in the same sequence, the figures for KAFAATQFEPLAA [UNK Y4A] were 0.9 and 1.2.

In the case of KYFAATQFEPFAA [UNK L13F], in assay [1], the “Loss of binding to DP*0402 (ratio of the IC50 values for the mutant peptide and for the UNK1 peptide)” value amounted to 4. Besides, the “Loss of binding to DP*0401 (ratio of the IC50 values for the mutant peptide and for the UNK1 peptide)” value in assay [2] came to 1.7. KYFAATQFEPVAA [UNK L13V]: in assay [1], the “Loss of binding to DP*0402 (ratio of the IC50 values for the mutant peptide and for the UNK1 peptide)” value worked out at 1.9. Besides, in assay [2], the “Loss of binding to DP*0401 (ratio of the IC50 values for the mutant peptide and for the UNK1 peptide)” value is given as 2.5.

For the molecule KYYAATQFEPLAA [UNK F5Y], the “Loss of binding to DP*0402 (ratio of the IC50 values for the mutant peptide and for the UNK1 peptide)” value in assay [1] was determined as 3.9. The “Loss of binding to DP*0401 (ratio of the IC50 values for the mutant peptide and for the UNK1 peptide)” value in assay [2] was 3. `CC[C@H](C)[C@H](NC(=O)[C@H](CC(C)C)NC(=O)[C@H](CC(N)=O)NC(=O)[C@H](Cc1ccccc1)NC(=O)[C@H](Cc1ccc(O)cc1)NC(=O)[C@H](CCSC)NC(=O)[C@H](CCCCN)NC(=O)CNC(=O)[C@@H](NC(=O)[C@H](Cc1ccccc1)NC(=O)[C@@H](N)Cc1ccc(O)cc1)C(C)C)C(=O)N[C@@H](CC(=O)O)C(=O)N[C@H](C(=O)N[C@@H](CCCCN)C(=O)N[C@@H](CS)C(=O)N[C@@H](Cc1ccc(O)cc1)C(=O)N[C@@H](CCCCN)C(=O)N[C@@H](CC(C)C)C(=O)O)[C@@H](C)O` [81-98] returned a half-maximal inhibitory concentration (IC50) in assay [2] (IC50 (nM) DP0401, Api m1 overlapping peptides, tracer bUNK 1-17 10 nM, pH 5, 24 h) of 2250 nM. With KYFAANQFEPLAA [UNK T8N], the “Loss of binding to DP*0402 (ratio of the IC50 values for the mutant peptide and for the UNK1 peptide)” value in assay [1] came out at 4.8. Moreover, the “Loss of binding to DP*0401 (ratio of the IC50 values for the mutant peptide and for the UNK1 peptide)” value in assay [2] came to 4.1. With KYFAATQFEPKAA [UNK L13K], the “Loss of binding to DP*0402 (ratio of the IC50 values for the mutant peptide and for the UNK1 peptide)” value in assay [1] is on record as 70. Further, the “Loss of binding to DP*0401 (ratio of the IC50 values for the mutant peptide and for the UNK1 peptide)” value in assay [2] is listed as 81.

In general, IC50 refers to the concentration that inhibits the measured activity by half.
